Converted amounts (≈) assume the structure as drawn. Read-outs that look alike come from different tables or passages of the source.
Key:
[1] = tested on: A. baumannii CDC-0045; experiment: microbe, parasite or virus in culture; assay type: cell-based; conditions: Acinetobacter baumannii, CDC0045, read-out: MIC, A. baumannii CDC-0045
[2] = tested on: N. gonorrhoeae WHO M; experiment: Liquid broth MIC in Fastidious broth; conditions: Neisseria gonorrhoeae
[3] = tested on: A. baumannii 1258916; experiment: microbe, parasite or virus in culture; assay type: cell-based, Acinetobacter baumannii; conditions: Acinetobacter baumannii, 1258916, read-out: MIC, A. baumannii 1258916
[4] = tested on: A. baumannii ATCC 19606; experiment: microbe, parasite or virus in culture; assay type: cell-based; conditions: Acinetobacter baumannii, ATCC19606, read-out: MIC, A. baumannii ATCC 19606
[5] = tested on: N. gonorrhoeae WHO G; experiment: Liquid broth MIC in Fastidious broth; conditions: Neisseria gonorrhoeae
[6] = tested on: P. aeruginosa CDC-0090; experiment: microbe, parasite or virus in culture; assay type: cell-based; conditions: Pseudomonas aeruginosa, CDC0090, read-out: Minimum inhibitory concentration, P. aeruginosa CDC-0090
[7] = tested on: N. gonorrhoeae CDC-0197; experiment: Liquid broth MIC in Fastidious broth; conditions: Neisseria gonorrhoeae
[8] = target: T1, PBP3 from Acinetobacter baumannii (ATCC 19606) (Acinetobacter baumannii, UniProt A0ABX6CK25); experiment: Bocillin-FL fluorescence polarization competition binding, A. baumannii PBP3; conditions: fluorescence polarization competition binding assay using Bocillin-FL; read-out: A. baumannii PBP3 Potency
T1 sequence (A0ABX6CK25 64-610): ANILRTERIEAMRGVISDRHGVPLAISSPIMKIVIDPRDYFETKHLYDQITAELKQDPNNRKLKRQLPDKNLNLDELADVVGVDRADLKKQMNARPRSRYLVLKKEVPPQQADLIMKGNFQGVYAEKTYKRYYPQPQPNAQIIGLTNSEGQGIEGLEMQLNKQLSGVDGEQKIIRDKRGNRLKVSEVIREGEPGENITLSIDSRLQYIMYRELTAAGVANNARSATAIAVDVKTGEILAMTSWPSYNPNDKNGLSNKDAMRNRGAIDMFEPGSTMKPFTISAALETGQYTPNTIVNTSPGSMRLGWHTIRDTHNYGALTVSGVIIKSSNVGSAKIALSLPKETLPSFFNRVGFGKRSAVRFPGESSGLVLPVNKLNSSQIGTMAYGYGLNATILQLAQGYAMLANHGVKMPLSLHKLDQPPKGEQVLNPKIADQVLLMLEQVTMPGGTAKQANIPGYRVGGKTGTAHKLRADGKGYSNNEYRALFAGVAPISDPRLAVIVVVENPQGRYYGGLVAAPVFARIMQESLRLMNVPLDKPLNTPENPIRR
In short: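 Purified PBPs pre-incubated with inhibitor (E. coli PBP3 1.5 μM, 30 min; P. aeruginosa PBP3 0.75 μM, A. baumannii PBP1a 1 μM and PBP3 0.2 μM, 15 min), then Bocillin-FL 0.1 μM (0.05 μM for PBP1a) added; FP read up to 60 min. EC50 = concentration halving bound Bocillin-FL.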

[9] = read-out: Minimum Inhibitory Concentration (MIC), N. gonorrhoeae WHO M
[10] = read-out: Minimum Inhibitory Concentration (MIC), N. gonorrhoeae WHO G
[11] = CDC0197, read-out: Minimum Inhibitory Concentration (MIC), N. gonorrhoeae CDC-0197
[12] = read-out: Minimum Inhibitory Concentration, WHO M
[13] = read-out: Minimum Inhibitory Concentration, WHO G
[14] = CDC0197, read-out: Minimum Inhibitory Concentration, CDC-0197

Row | SMILES | MIC [1] | MIC [2, 9] | MIC [3] | MIC [4] | MIC [5, 10] | MIC [6] | MIC [7, 11] | IC50 [8] | MIC [2, 12] | MIC [5, 13] | MIC [7, 14]
1 | O=C(NCCN1CCN(C(=O)NC(C(=O)N[C@H]2Cc3ccc(F)c(C(=O)O)c3OB2O)c2cc(F)c(O)c(O)c2Cl)C(=O)C1=O)Nc1cccc(O)c1 (stereo partly drawn) [Example 220, (3R)-3-(2-(2-chloro-5-fluoro-3,4-dihydroxyphenyl)-2-(4-(2-(3-(3-hydroxyphenyl)ureido)ethyl)-2,3-dioxopiperazine-1-carboxamido)acetamido)-7-fluoro-2-hydroxy-3,4-dihydro-2H-benzo[e][1,2]oxaborinine-8-carboxylic acid] | 2 to 4 µg/mL (≈ 2.63 to 5.26 µM) | 4 to 8 µg/mL (≈ 5.26 to 10.5 µM) | 2 to 4 µg/mL (≈ 2.63 to 5.26 µM) | < 1 µg/mL | 4 to 8 µg/mL (≈ 5.26 to 10.5 µM) | < 1 µg/mL | > 64 µg/mL | < 10 µM | – | – | –
2 | O=C(NCCN1CCN(C(=O)NC(C(=O)N[C@H]2Cc3ccc(F)c(C(=O)O)c3OB2O)c2cc(F)c(O)c(O)c2Cl)C1=O)c1ccc(O)cc1 (stereo partly drawn) [Example 243, (3R)-3-(2-(2-chloro-5-fluoro-3,4-dihydroxyphenyl)-2-(3-(2-(4-hydroxybenzamido)ethyl)-2-oxoimidazolidine-1-carboxamido)acetamido)-7-fluoro-2-hydroxy-3,4-dihydro-2H-benzo[e][1,2]oxaborinine-8-carboxylic acid] | < 1 µg/mL | 4 to 8 µg/mL (≈ 5.57 to 11.1 µM) | < 1 µg/mL | < 1 µg/mL | 16 to 32 µg/mL (≈ 22.3 to 44.6 µM) | < 1 µg/mL | 16 to 32 µg/mL (≈ 22.3 to 44.6 µM) | < 10 µM | – | – | –
3 | O=C(O)c1c(F)ccc2c1OB(O)[C@@H](NC(=O)C(NC(=O)N1CCN(CCNC(=O)[C@@H]3CCCN3)C1=O)c1cc(F)c(O)c(O)c1Cl)C2 (stereo partly drawn) [Example 248, (3R)-3-(2-(2-chloro-5-fluoro-3,4-dihydroxyphenyl)-2-(2-oxo-3-(2-((S)-pyrrolidine-2-carboxamido)ethyl)imidazolidine-1-carboxamido)acetamido)-7-fluoro-2-hydroxy-3,4-dihydro-2H-benzo[e][1,2]oxaborinine-8-carboxylic acid] | < 1 µg/mL | – | < 1 µg/mL | < 1 µg/mL | – | 8 to 16 µg/mL (≈ 11.5 to 23 µM) | – | < 10 µM | 4 to 8 µg/mL (≈ 5.76 to 11.5 µM) | 16 to 32 µg/mL (≈ 23 to 46.1 µM) | 16 to 32 µg/mL (≈ 23 to 46.1 µM)
4 | O=C(NCCCN1CCN(C(=O)NC(C(=O)N[C@H]2Cc3ccc(F)c(C(=O)O)c3OB2O)c2cc(F)c(O)c(O)c2Cl)C(=O)C1=O)Nc1cccc(O)c1 (stereo partly drawn) [Example 206, (3R)-3-(2-(2-chloro-5-fluoro-3,4-dihydroxyphenyl)-2-(4-(3-(3-(3-hydroxyphenyl)ureido)propyl)-2,3-dioxopiperazine-1-carboxamido)acetamido)-7-fluoro-2-hydroxy-3,4-dihydro-2H-benzo[e][1,2]oxaborinine-8-carboxylic acid] | < 1 µg/mL | 4 to 8 µg/mL (≈ 5.16 to 10.3 µM) | < 1 µg/mL | < 1 µg/mL | 4 to 8 µg/mL (≈ 5.16 to 10.3 µM) | < 1 µg/mL | 16 to 32 µg/mL (≈ 20.6 to 41.3 µM) | < 10 µM | – | – | –
5 | O=C(CN1CCN(C(=O)NC(C(=O)N[C@H]2Cc3ccc(F)c(C(=O)O)c3OB2O)c2cc(F)c(O)c(O)c2Cl)C(=O)C1=O)NCc1cccnc1 (stereo partly drawn) [Example 240, (3R)-3-(2-(2-chloro-5-fluoro-3,4-dihydroxyphenyl)-2-(2,3-dioxo-4-(2-oxo-2-((pyridin-3-ylmethyl)amino)ethyl)piperazine-1-carboxamido)acetamido)-7-fluoro-2-hydroxy-3,4-dihydro-2H-benzo[e][1,2]oxaborinine-8-carboxylic acid] | 2 to 4 µg/mL (≈ 2.74 to 5.47 µM) | 4 to 8 µg/mL (≈ 5.47 to 10.9 µM) | < 1 µg/mL | < 1 µg/mL | 4 to 8 µg/mL (≈ 5.47 to 10.9 µM) | 2 to 4 µg/mL (≈ 2.74 to 5.47 µM) | 16 to 32 µg/mL (≈ 21.9 to 43.8 µM) | < 10 µM | – | – | –
6 | O=C(NCCCS(=O)(=O)N1CCN(C(=O)NC(C(=O)N[C@H]2Cc3ccc(F)c(C(=O)O)c3OB2O)c2cc(F)c(O)c(O)c2Cl)C1=O)Nc1ccc(O)cc1 (stereo partly drawn) [Example 276, (3R)-3-(2-(2-chloro-5-fluoro-3,4-dihydroxyphenyl)-2-(3-((3-(3-(4-hydroxyphenyl)ureido)propyl)sulfonyl)-2-oxoimidazolidine-1-carboxamido)acetamido)-7-fluoro-2-hydroxy-3,4-dihydro-2H-benzo[e][1,2]oxaborinine-8-carboxylic acid] | 2 to 4 µg/mL (≈ 2.47 to 4.93 µM) | – | < 1 µg/mL | < 1 µg/mL | – | < 1 µg/mL | – | < 10 µM | 4 to 8 µg/mL (≈ 4.93 to 9.87 µM) | 16 to 32 µg/mL (≈ 19.7 to 39.5 µM) | 16 to 32 µg/mL (≈ 19.7 to 39.5 µM)
